Data as given in DBAASP.
Values after ≈ are worked out from the molar mass of the structure shown.

Columns and labels:
Experiment in all cases: ≥ marks a high value that may be exact or a test limit, other limits are often not marked, values filed in µg/mL are converted to µM
[1] = system: Pseudomonas aeruginosa NCIB 10421
Candida albicans MDM8 = system: Candida albicans MDM8
[2] = system: Bacillus megaterium ATCC 10778
[3] = system: Staphylococcus aureus USA 300
[4] = system: Staphylococcus aureus ATCC 29213
Escherichia coli SBS 363 = system: Escherichia coli SBS 363
[5] = system: Escherichia coli NCTC 12923
Micrococcus luteus A270 = system: Micrococcus luteus A270
[6] = system: Acinetobacter baumannii ATCC 17978
[7] = system: Klebsiella pneumoniae NCTC 13368
[8] = system: Pseudomonas aeruginosa PAO1
[9] = system: Serratia marcescens ATCC 4112
[10] = system: Enterobacter cloacae beta-12
[11] = system: Candida tropicalis IOC 4560
[12] = system: Staphylococcus aureus ATCC 9144
[13] = system: Bacillus subtilis ATCC 6633
[14] = system: Pseudomonas aeruginosa NCTC 13437
[15] = system: Escherichia coli ATCC 25922
[16] = system: Lacticaseibacillus rhamnosus 1.0385
[17] = system: Lacticaseibacillus rhamnosus 1.0911
[18] = system: Lactiplantibacillus plantarum 8014
[19] = system: Staphylococcus aureus ATCC 43300
[20] = system: Pseudomonas aeruginosa ATCC 27853
[21] = system: Lacticaseibacillus rhamnosus 1.0386
[22] = system: Staphylococcus epidermidis ATCC 12228
Escherichia coli UB1005 = system: Escherichia coli UB1005
[23] = system: Lacticaseibacillus rhamnosus 1.0925
[24] = system: Lacticaseibacillus rhamnosus 7469
[25] = system: Staphylococcus aureus ATCC 33591
[26] = system: Escherichia coli ATCC 11229
[27] = system: Staphylococcus aureus ATCC 25923
Escherichia coli W3110 = system: Escherichia coli W3110
[28] = system: Klebsiella pneumoniae ATCC BAA-1705
[29] = system: Candida albicans FRR 5580
[30] = system: Pseudomonas aeruginosa ATCC 9027

Row | MIC [4] | MIC [15] | MIC [16] | MIC [17] | MIC [19] | MIC [20] | MIC [21] | MIC [22] | MIC (Escherichia coli UB1005) | MIC [23] | MIC [24] | MIC [27] | Structure (SMILES) | MIC [18] | also measured
1 | 8 µM (≈ 14.2 µg/mL) | > 64 µM | ≥ 64 µM | ≥ 64 µM | 4 µM (≈ 7.12 µg/mL) | 8 µM (≈ 14.2 µg/mL) | 16 µM (≈ 28.5 µg/mL) | 8 µM (≈ 14.2 µg/mL) | 16 µM (≈ 28.5 µg/mL) | ≥ 64 µM | ≥ 64 µM | – | NC(=O)[C@H](CCCN=C(N)N)NC(=O)[C@H](CCCN=C(N)N)NC(=O)[C@H](Cc1c[nH]c2ccccc12)NC(=O)[C@H](CS)NC(=O)[C@H](Cc1c[nH]c2ccccc12)NC(=O)[C@H](Cc1c[nH]c2ccccc12)NC(=O)[C@H](Cc1c[nH]c2ccccc12)NC(=O)[C@H](CS)NC(=O)[C@H](Cc1c[nH]c2ccccc12)NC(=O)[C@H](CCCN=C(N)N)NC(=O)[C@@H](N)CCCN=C(N)N [RRWCWWWCWRR] | 8 µM (≈ 14.2 µg/mL) | –
2 | – | – | ≥ 64 µM | ≥ 64 µM | 4 µM (≈ 7.1 µg/mL) | 4 µM (≈ 7.1 µg/mL) | ≥ 64 µM | 2 µM (≈ 3.55 µg/mL) | 2 µM (≈ 3.55 µg/mL) | ≥ 64 µM | ≥ 64 µM | – | C[C@@H](O)[C@H](NC(=O)[C@H](Cc1c[nH]c2ccccc12)NC(=O)[C@H](Cc1c[nH]c2ccccc12)NC(=O)[C@H](Cc1c[nH]c2ccccc12)NC(=O)[C@@H](NC(=O)[C@H](Cc1c[nH]c2ccccc12)NC(=O)[C@H](CCCN=C(N)N)NC(=O)[C@@H](N)CCCN=C(N)N)[C@@H](C)O)C(=O)N[C@@H](Cc1c[nH]c2ccccc12)C(=O)N[C@@H](CCCN=C(N)N)C(=O)N[C@@H](CCCN=C(N)N)C(N)=O [RRWTWWWTWRR] | ≥ 64 µM | –
3 | 36 µM (≈ 64 µg/mL) | – | – | – | – | – | – | – | – | – | – | 36 µM (≈ 64 µg/mL) | CC[C@H](C)[C@H](NC(=O)[C@H](CCCN=C(N)N)NC(=O)[C@H](CCSC)NC(=O)[C@H](C)NC(=O)[C@H](CCCN=C(N)N)NC(=O)CNC(=O)[C@H](C)NC(=O)[C@@H](NC(=O)[C@@H](N)CO)C(C)C)C(=O)NCC(=O)N[C@@H](CC(C)C)C(=O)N[C@@H](CCCN=C(N)N)C(=O)N[C@@H](Cc1ccccc1)C(=O)N[C@H](C(=O)N[C@@H](CC(C)C)C(=O)N[C@@H](CCSC)C(=O)O)C(C)C [SVAGRAMRIGLRFVLM] | – | MIC [25]: ≥ 36 µM; MIC [26]: ≥ 36 µM
4 | – | – | – | – | – | – | – | – | – | – | – | – | CC[C@H](C)[C@H](NC(=O)[C@H](CCCCN)NC(=O)[C@H](CCCCN)NC(=O)[C@H](Cc1ccc(O)cc1)NC(=O)[C@H](CCCCN)NC(=O)[C@H](CC(C)C)NC(=O)[C@H](CC(C)C)NC(=O)[C@H](CCCCN)NC(=O)[C@H](CC(C)C)NC(=O)CNC(=O)[C@H](Cc1c[nH]c2ccccc12)NC(=O)[C@H](CS)NC(=O)[C@H](C)NC(=O)[C@H](Cc1c[nH]c2ccccc12)NC(=O)[C@H](CCCN=C(N)N)NC(=O)[C@@H](N)Cc1c[nH]c2ccccc12)C(=O)N[C@@H](Cc1ccc(O)cc1)C(=O)O [WRWACWGLKLLKYKKIY] | – | MIC (Escherichia coli W3110): 1 µM (≈ 2.26 µg/mL); MIC [28]: ≥ 64 µM
5 | – | 2.94 µM (≈ 4 µg/mL) | – | – | – | – | – | – | – | – | – | 5.88 µM (≈ 7.99 µg/mL) | NCCCC[C@H](NC(=O)[C@H](Cc1c[nH]c2ccccc12)NC(=O)[C@H](Cc1c[nH]c2ccccc12)NC(=O)[C@H](CCCCN)NC(=O)[C@H](Cc1c[nH]c2ccccc12)NC(=O)[C@H](Cc1c[nH]c2ccccc12)NC(=O)[C@H](CCCN=C(N)N)NC(=O)[C@@H](N)Cc1c[nH]c2ccccc12)C(N)=O [WRWWKWWK] | – | MIC [29]: ≥ 47 µM; MIC [30]: 23.5 µM (≈ 32 µg/mL)

Row | Structure (SMILES) | MIC [4] | MIC [15] | MIC [16] | MIC [17] | MIC [19] | MIC [20] | MIC [21] | MIC [22] | MIC (Escherichia coli UB1005) | MIC [23] | MIC [24] | MIC [27] | MIC [18] | also measured
6 | CC[C@H](C)[C@H](NC(=O)[C@H](CCCCN)NC(=O)[C@H](CCC(=O)O)NC(=O)[C@H](Cc1c[nH]c2ccccc12)NC(=O)[C@H](Cc1ccccc1)NC(=O)[C@H](CCCCN)NC(=O)CNC(=O)[C@H](CC(C)C)NC(=O)[C@H](C)N)C(=O)N[C@@H](CCCCN)C(=O)N[C@@H](CO)C(=O)N[C@@H](CC(C)C)C(=O)N[C@@H](Cc1ccccc1)C(N)=O [ALGKFWEKIKSLF] | 3.13 µM (≈ 4.9 µg/mL) | – | – | – | – | – | – | – | – | – | – | – | – | MIC [1]: 12.5 µM (≈ 19.6 µg/mL); MIC (Candida albicans MDM8): 3.13 µM (≈ 4.9 µg/mL); MIC [2]: 0.78 µM (≈ 1.22 µg/mL); MIC [3]: 10.2 µM (≈ 16 µg/mL); MIC (Escherichia coli SBS 363): 1.56 µM (≈ 2.44 µg/mL); MIC [5]: 5.11 µM (≈ 8 µg/mL); MIC (Micrococcus luteus A270): 0.78 µM (≈ 1.22 µg/mL); MIC [6]: 2.55 µM (≈ 4 µg/mL); MIC [7]: 10.2 µM (≈ 16 µg/mL); MIC [8]: > 81.7 µM; MIC [9]: 0.36 µM (≈ 0.564 µg/mL); MIC [10]: 6.25 µM (≈ 9.79 µg/mL); MIC [11]: 0.78 µM (≈ 1.22 µg/mL); MIC [12]: 2.55 µM (≈ 4 µg/mL); MIC [13]: 0.78 µM (≈ 1.22 µg/mL); MIC [14]: ≥ 40.8 µM
